This passage reports IC50 and inhibition results from patent publication US9688654B2, “Compounds inhibiting leucine-rich repeat kinase enzyme activity” (Merck Sharp & Dohme Corp., priority 2013, dated 2017).

Usually IC50 stands for the midpoint of a concentration-inhibition curve.

Common to all, as to format: biochemical
The target of assay [1] is T1, LRRK2 (G2019S mutation, GST-LRRK2 (amino acids 970-2527)) (Homo sapiens, UniProt Q5S007, G2019S).
T1 construct: GST-LRRK2 (amino acids 970-2527); GST (N); purchased Life Technologies Corporation
T1 sequence (Q5S007 970-2527 G2019S): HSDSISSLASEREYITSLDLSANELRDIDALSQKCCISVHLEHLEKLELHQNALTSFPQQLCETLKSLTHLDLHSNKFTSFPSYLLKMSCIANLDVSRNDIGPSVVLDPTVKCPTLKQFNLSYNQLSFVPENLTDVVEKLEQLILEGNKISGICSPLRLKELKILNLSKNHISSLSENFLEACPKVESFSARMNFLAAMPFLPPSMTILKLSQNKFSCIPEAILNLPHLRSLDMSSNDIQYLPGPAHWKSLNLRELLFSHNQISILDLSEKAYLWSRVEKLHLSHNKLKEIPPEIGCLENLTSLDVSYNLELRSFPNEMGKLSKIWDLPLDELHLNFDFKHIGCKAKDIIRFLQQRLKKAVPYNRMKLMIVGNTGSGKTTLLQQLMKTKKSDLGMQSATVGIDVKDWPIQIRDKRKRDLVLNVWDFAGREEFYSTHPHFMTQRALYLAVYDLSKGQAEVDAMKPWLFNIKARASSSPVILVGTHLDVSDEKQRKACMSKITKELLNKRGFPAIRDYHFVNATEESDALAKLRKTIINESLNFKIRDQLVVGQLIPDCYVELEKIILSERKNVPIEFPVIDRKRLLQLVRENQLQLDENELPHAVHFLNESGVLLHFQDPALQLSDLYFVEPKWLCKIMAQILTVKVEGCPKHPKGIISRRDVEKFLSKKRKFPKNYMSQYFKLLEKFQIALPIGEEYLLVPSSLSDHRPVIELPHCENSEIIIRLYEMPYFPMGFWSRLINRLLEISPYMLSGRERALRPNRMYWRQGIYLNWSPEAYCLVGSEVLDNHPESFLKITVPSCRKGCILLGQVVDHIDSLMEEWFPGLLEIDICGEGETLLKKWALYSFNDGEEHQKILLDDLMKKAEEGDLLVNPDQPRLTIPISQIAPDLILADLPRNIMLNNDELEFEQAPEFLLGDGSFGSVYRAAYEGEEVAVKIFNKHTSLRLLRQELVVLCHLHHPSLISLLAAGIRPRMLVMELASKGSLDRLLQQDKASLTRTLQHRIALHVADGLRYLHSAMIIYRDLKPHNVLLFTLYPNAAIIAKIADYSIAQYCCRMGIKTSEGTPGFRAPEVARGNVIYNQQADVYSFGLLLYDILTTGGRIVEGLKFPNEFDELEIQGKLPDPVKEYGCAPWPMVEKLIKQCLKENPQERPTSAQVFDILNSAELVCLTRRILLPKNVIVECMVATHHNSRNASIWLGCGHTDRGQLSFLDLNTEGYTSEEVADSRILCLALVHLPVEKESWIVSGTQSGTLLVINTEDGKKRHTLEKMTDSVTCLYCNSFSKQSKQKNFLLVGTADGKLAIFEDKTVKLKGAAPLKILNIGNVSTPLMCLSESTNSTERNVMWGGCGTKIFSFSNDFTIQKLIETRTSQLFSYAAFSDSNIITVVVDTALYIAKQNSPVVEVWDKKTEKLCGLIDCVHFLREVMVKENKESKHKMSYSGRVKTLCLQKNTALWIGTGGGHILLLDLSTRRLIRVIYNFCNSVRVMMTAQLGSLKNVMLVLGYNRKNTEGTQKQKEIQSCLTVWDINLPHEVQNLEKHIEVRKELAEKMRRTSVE
In words: LRRK2 Km ATP LanthaScreen Assay. As to conditions: mean IC50. As to the method:
Unless otherwise noted, all LRRK2 IC50 data presented in tables refers to the LRRK2 Km ATP LanthaScreen™ Assay that is described in the Biological Assay section.
The data presented for the 5 mM and Km ATP LanthaScreen™ Assay represents mean IC50 values based on several test results and may have reasonable. deviations depending on the specific conditions and reagents used. Reagents for the LRRK2 5 mM and Km ATP LanthaScreen™ Assay were purchased from Life Technologies Corporation.
• a) 400 nl of a 1:2.15 serial dilution of test compound (98 μM top assay concentration) is spotted via Labcyte Echo to certain wells in a 384 well black, untreated plate. Control wells contain 400 nl of either DMSO or 400 nl of a known inhibitor in DMSO. • b) 10 μl of a 2.5 nM LRRK2 (G2019S mutation, GST-LRRK2 (amino acids 970-2527)) enzyme solution in 1× assay buffer (50 mM Tris pH 8.5, 10 mM MgCl2, 0.01% Brij-35, 1.0 mM EGTA, 2 mM DTT, 0.05 mM NaVO4) is added to all wells. • c) A 30 minute room temperature incubation is followed by addition of 10 μl […]) After a 35 minute room temperature incubation, 20 μl of TR-FRET Dilution Buffer (Invitrogen PV3756B) containing 4 nM Tb-labeled anti-phospho LRRKtide antibody and 20 mM EDTA is added to all wells. • e) Plates are incubated at room temperature for 1 hour and read on an Envision™ multi-mode plate reader with LanthaScreen™ settings. Results are analysed using Assay Data Analyzer. […] Results are analysed using Assay Data Analyzer.
(In general: Time-resolved FRET reads energy transfer from a long-lived donor to a nearby acceptor.)

The target of another assay is T2, CDK1/cyclin B (Homo sapiens, UniProt P06493).
T2 construct: purchased Life Technologies Corporation
T2 sequence (P06493 whole entry): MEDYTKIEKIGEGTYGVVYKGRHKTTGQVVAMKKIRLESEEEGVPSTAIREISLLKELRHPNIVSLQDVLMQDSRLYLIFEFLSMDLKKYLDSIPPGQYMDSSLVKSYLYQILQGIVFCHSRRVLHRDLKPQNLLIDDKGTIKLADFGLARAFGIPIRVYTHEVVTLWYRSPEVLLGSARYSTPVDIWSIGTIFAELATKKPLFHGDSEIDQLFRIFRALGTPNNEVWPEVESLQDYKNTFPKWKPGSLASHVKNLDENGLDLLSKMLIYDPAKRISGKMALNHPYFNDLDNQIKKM
T2 sequence (P14635 whole entry partner): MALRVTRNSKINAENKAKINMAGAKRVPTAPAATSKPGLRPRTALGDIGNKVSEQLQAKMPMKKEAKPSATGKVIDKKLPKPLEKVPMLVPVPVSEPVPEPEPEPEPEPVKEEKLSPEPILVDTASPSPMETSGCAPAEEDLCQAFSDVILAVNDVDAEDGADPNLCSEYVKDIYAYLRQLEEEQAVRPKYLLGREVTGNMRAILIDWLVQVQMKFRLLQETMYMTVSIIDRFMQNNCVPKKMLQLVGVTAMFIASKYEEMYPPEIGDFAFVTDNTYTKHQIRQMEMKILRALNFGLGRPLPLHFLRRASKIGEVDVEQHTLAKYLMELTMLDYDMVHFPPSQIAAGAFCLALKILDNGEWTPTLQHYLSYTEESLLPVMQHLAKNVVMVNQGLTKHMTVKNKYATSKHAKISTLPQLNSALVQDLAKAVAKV
In words: Kinase selectivity, Z'-LYTE platform. As to conditions: 1 micromolar compound, read-out: percent inhibition CDK1/cyclin B.

The next assay concerns the target T3, AURKB (Aurora B) (Homo sapiens, UniProt Q96GD4).
T3 construct: purchased Life Technologies Corporation
The assay can be described thus: Kinase selectivity, Z'-LYTE platform. As to conditions: 1 micromolar compound, read-out: percent inhibition AURKB (Aurora B).

The target in another assay is T4, MAPK8 (JNK1) (Homo sapiens, UniProt P45983).
T4 construct: purchased Life Technologies Corporation
T4 sequence (P45983 whole entry): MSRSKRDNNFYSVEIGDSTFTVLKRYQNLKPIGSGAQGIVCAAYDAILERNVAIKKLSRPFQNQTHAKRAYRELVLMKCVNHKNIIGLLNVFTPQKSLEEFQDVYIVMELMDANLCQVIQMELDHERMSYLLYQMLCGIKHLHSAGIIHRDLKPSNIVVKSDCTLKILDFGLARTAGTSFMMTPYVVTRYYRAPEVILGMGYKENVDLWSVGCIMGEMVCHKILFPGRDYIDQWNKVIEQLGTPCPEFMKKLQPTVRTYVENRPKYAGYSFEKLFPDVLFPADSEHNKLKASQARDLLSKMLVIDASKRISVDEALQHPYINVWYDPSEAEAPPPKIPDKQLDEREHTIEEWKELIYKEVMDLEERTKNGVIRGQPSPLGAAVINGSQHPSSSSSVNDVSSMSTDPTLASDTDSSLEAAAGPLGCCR
The assay can be described thus: Kinase selectivity, Z'-LYTE platform. As to conditions: 1 micromolar compound, read-out: percent inhibition MAPK8 (JNK1).

In the next assay the target is T5, BRAF V599E (Homo sapiens, UniProt P15056, V600E).
T5 construct: purchased Life Technologies Corporation
T5 sequence (P15056 whole entry V600E): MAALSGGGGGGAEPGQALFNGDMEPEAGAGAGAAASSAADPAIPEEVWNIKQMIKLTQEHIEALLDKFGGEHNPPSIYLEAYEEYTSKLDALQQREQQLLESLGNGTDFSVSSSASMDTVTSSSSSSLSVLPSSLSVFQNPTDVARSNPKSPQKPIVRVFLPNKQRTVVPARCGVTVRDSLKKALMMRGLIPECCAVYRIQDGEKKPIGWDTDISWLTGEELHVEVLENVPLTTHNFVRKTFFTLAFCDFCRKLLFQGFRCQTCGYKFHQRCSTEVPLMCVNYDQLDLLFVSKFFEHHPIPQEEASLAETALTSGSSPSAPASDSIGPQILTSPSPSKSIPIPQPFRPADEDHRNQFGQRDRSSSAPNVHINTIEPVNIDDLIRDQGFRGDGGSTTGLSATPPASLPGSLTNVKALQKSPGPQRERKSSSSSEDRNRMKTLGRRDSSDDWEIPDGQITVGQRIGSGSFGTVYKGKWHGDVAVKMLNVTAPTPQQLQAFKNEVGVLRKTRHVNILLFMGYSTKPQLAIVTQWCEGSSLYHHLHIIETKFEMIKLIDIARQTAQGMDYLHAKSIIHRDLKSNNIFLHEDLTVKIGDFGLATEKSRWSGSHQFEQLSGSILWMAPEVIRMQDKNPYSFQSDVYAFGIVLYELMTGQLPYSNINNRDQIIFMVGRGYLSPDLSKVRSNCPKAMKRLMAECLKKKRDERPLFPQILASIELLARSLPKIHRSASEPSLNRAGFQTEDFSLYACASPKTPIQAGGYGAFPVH
In words: Kinase selectivity, Z'-LYTE platform. As to conditions: 1 micromolar compound, read-out: percent inhibition BRAF V599E.

The next assay addresses T6, MAPK1 (ERK2) (Homo sapiens, UniProt P28482).
T6 construct: purchased Life Technologies Corporation
The assay can be described thus: Kinase selectivity, Z'-LYTE platform. Particulars: 1 micromolar compound, read-out: percent inhibition MAPK1 (ERK2).

For a further assay, the target named is T7, JAK3 (Homo sapiens, UniProt P52333).
T7 construct: purchased Life Technologies Corporation
T7 sequence (P52333 1-1124): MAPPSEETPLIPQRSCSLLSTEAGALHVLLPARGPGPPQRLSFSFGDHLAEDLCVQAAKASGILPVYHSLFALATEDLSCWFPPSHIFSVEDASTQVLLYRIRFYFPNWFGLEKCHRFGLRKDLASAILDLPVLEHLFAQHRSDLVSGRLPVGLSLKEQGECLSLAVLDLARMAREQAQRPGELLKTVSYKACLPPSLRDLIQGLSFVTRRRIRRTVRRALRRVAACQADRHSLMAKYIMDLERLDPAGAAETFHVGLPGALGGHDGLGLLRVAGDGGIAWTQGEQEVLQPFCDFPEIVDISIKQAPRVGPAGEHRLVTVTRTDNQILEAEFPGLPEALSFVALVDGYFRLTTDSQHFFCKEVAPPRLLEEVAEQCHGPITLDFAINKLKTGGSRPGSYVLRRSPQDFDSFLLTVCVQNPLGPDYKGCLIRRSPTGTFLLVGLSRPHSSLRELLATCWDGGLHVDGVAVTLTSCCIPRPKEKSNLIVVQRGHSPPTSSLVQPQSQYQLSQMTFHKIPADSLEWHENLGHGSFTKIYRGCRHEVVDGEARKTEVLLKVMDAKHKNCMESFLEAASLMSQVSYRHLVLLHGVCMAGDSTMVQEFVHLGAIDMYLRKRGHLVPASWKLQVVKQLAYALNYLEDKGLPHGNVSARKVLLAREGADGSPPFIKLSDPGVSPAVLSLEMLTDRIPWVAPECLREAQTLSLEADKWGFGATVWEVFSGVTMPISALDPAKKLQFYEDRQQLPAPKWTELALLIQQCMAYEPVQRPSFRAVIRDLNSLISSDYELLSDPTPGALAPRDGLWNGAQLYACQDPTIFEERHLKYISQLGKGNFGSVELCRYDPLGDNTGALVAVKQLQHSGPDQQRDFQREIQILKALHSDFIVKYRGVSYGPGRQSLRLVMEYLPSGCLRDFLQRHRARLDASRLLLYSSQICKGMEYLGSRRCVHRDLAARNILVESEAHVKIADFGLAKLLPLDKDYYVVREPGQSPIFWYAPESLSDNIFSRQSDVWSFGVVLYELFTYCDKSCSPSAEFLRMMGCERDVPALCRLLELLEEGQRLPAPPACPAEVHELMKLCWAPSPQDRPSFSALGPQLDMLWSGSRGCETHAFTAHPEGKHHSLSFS
The assay can be described thus: Kinase selectivity, Z'-LYTE platform. Particulars: 1 micromolar compound, read-out: percent inhibition JAK3.

A further assay deals with T8, IRAK1 (Homo sapiens, UniProt P51617).
T8 construct: purchased Life Technologies Corporation
T8 sequence (P51617 whole entry): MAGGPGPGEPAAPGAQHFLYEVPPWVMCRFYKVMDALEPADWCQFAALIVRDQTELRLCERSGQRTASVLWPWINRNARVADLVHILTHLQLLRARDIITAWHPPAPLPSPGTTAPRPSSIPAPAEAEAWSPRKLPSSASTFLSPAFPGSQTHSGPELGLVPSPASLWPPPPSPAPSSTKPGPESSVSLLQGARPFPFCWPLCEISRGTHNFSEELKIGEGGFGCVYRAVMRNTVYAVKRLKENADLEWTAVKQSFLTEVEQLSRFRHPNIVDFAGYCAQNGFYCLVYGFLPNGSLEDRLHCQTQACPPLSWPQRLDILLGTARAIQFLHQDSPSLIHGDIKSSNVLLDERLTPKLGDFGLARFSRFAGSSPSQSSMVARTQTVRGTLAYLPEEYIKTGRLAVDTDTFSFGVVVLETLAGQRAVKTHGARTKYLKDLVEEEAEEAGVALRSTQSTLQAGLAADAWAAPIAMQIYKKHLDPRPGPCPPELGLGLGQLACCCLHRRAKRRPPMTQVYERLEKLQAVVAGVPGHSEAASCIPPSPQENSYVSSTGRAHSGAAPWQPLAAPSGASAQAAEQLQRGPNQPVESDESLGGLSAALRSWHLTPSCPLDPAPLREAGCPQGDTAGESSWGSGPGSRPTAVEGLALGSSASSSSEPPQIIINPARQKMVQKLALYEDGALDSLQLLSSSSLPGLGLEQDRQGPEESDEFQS
In words: Kinase selectivity, Adapta platform. As to conditions: 1 micromolar compound, read-out: percent inhibition IRAK1.

In a further assay the target is T9, CHEK2 (CHK2) (Homo sapiens, UniProt O96017).
T9 construct: purchased Life Technologies Corporation
The assay can be described thus: Kinase selectivity, Z'-LYTE platform. Particulars: 1 micromolar compound, read-out: percent inhibition CHEK2 (CHK2).

In another assay the target is T10, DYRK1A (Homo sapiens, UniProt Q13627).
T10 construct: purchased Life Technologies Corporation
In words: Kinase selectivity, Z'-LYTE platform. Particulars: 1 micromolar compound, read-out: percent inhibition DYRK1A.

The next assay addresses T11, CLK2 (Homo sapiens, UniProt P49760).
T11 construct: purchased Life Technologies Corporation
The assay can be described thus: Kinase selectivity, Z'-LYTE platform. As to conditions: 1 micromolar compound, read-out: percent inhibition CLK2.

T11 sequence (P49760 whole entry): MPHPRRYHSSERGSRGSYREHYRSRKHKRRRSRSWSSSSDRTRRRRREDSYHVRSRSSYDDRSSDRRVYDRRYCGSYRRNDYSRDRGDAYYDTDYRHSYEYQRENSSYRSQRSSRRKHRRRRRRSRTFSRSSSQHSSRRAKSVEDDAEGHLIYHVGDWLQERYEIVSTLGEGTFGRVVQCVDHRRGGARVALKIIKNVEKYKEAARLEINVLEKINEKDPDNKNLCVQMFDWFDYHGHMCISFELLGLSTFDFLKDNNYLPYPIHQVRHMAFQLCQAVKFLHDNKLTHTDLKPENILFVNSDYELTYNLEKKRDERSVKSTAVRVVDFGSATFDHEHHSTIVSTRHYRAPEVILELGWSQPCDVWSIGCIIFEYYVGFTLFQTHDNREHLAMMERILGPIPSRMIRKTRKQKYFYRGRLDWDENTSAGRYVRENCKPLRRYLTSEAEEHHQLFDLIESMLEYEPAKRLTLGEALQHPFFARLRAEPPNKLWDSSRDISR
T6 sequence (P28482 whole entry): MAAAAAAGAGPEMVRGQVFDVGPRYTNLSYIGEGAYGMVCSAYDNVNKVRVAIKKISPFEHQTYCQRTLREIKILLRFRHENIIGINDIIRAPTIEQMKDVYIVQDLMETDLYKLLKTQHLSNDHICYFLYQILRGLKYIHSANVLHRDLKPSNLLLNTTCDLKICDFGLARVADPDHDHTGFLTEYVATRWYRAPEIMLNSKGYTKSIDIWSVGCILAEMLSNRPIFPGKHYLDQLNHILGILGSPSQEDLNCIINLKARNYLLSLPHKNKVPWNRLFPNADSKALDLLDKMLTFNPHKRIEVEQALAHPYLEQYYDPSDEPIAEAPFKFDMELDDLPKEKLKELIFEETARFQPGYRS

In the case of `CO[C@H]1CN(c2cc(-c3n[nH]c4ccc(OC5CC5)cc34)ccn2)C[C@@H]1O` [Example 10], the IC50 in assay [1] amounted to 23 nM.

`c1cnn(C2CCN(c3cc(-c4n[nH]c5ccc(OC6CC6)cc45)ccn3)CC2)c1` [Example 13]: in assay [1], half-maximal inhibition (IC50) required 16 nM.

`CS(=O)(=O)N1CCCN(c2cc(-c3n[nH]c4ccc(OC5CC5)cc34)ccn2)CC1` [Example 17] yielded an IC50 in assay [1] of 51 nM.

For the molecule `FC1(F)CCN(c2cc(-c3n[nH]c4ccc(OC5CC5)cc34)ccn2)CC1` [Example 8], the IC50 in assay [1] was found to be 30 nM.

Molecule `CC1(Oc2ccc3[nH]nc(-c4ccnc(N5CCN(S(C)(=O)=O)CC5)c4)c3c2)CC1` [Example 31] yielded an IC50 in [1] of 0.6 nM.

On to `CC1(Oc2ccc3[nH]nc(-c4ccnc(N5C6CCC5COC6)c4)c3c2)CC1` [Example 5], for which, in [1], the IC50 was found to be 67 nM.

As to `C[C@H]1[C@H](O)[C@@H](O)CN1c1cc(-c2n[nH]c3ccc(OC4(C)CC4)cc23)ccn1` [Example 34], half-maximal inhibition in assay [1] (IC50) required 0.7 nM.

In assay [1], `O=S1(=O)CCCN(c2cc(-c3n[nH]c4ccc(OC5CC5)cc34)ccn2)CC1` [Example 16] returned an IC50 of 71 nM.

`CO[C@H]1CCN(c2cc(-c3n[nH]c4ccc(OC5CC5)cc34)ccn2)C1` [Example 22] registered an IC50 in assay [1] of 17 nM.

`Fc1cc2[nH]nc(-c3ccnc(N4CCOCC4)c3)c2cc1OC1CC1` [Example 3]: it took 1.2 nM to reach half-maximal inhibition in assay [1] (IC50).

In assay [1], `F[C@H]1CN(c2cc(-c3n[nH]c4ccc(OC5CC5)cc34)ccn2)C[C@@H]1F` [Example 14] registered an IC50 of 19 nM.

With `FC1(F)CCCN(c2cc(-c3n[nH]c4ccc(OC5CC5)cc34)ccn2)C1` [Example 20], the IC50 in assay [1] was determined as 22 nM.

`FC1(F)CN(c2cc(-c3n[nH]c4ccc(OC5CC5)cc34)ccn2)C1` [Example 25] gave an IC50 in [1] of 40 nM.

Take `CC1(Oc2ccc3[nH]nc(-c4ccnc(N5CCOCC5)c4)c3c2)CC1` [Example 27]: the inhibition at 1 µM at CDK1/cyclin B is 33%; at AURKB (Aurora B), 15%; on MAPK8 (JNK1), 61%; on BRAF V599E it was 29%; on MAPK1 (ERK2), 23%; at JAK3, 56%. The inhibition at 1 µM at IRAK1 was found to be 18%; at CHEK2 (CHK2) it was 14%; on DYRK1A, 6%; at CLK2, 46%. Moreover, it took 0.6 nM to reach half-maximal inhibition in [1] (IC50).

As to `C[C@H]1CN(c2cc(-c3n[nH]c4ccc(OC5(C)CC5)cc34)ccn2)CCO1` [Example 28], the inhibition at 1 µM was determined as 25% at CDK1/cyclin B; 11% at AURKB (Aurora B); 58% on MAPK8 (JNK1); 19% at BRAF V599E; 23% at MAPK1 (ERK2); 49% on JAK3. Moreover, the inhibition at 1 µM at IRAK1 was -5%; on CHEK2 (CHK2) it was 4%; at DYRK1A, 2%; on CLK2 it was 42%. Also, the IC50 in assay [1] worked out at 0.6 nM.

On to `CC1(Oc2ccc3[nH]nc(-c4ccnc(N5CC[C@H](N)C5)c4)c3c2)CC1` [Example 37], for which the midpoint of inhibition in assay [1], the IC50, lay at 2.6 nM.

On to `CC1(Oc2ccc3[nH]nc(-c4ccnc(N5CC6CCC(C5)O6)c4)c3c2)CC1` [Example 4], for which, in assay [1], 23 nM corresponded to half-maximal inhibition (IC50).

Molecule `O[C@H]1CCN(c2cc(-c3n[nH]c4ccc(OC5CC5)cc34)ccn2)C1` [Example 24] came in with an IC50 in [1] of 29 nM.

Consider `c1cc(-c2n[nH]c3ccc(OC4CC4)cc23)cc(N2CCc3oc(C4CC4)nc3C2)n1` [Example 19], for which the midpoint of inhibition in [1], the IC50, lay at 54 nM.

In assay [1], `FC1(F)CCN(c2cc(-c3n[nH]c4ccc(OC5CC5)cc34)ccn2)C1` [Example 21] gave an IC50 of 19 nM.

In assay [1], `c1cc(-c2n[nH]c3ccc(OC4CC4)cc23)cc(N2CCOCC2)n1` [Example 1] gave an IC50 of 40 nM.

In assay [1], `CC1(Oc2ccc3[nH]nc(-c4ccnc(N5CC[C@@H](N)C5)c4)c3c2)CC1` [Example 36] returned a half-maximal inhibitory concentration (IC50) of 2 nM.

Take `c1cc(-c2n[nH]c3ccc(OC4COC4)cc23)cc(N2CCOCC2)n1` [Example 2]: the 50% inhibitory concentration (IC50) in [1] was found to be 20 nM.

The molecule `C[C@H]1[C@H](N)[C@@H](O)CN1c1cc(-c2n[nH]c3ccc(OC4(C)CC4)cc23)ccn1` [Example 35] showed an IC50 in assay [1] of 1.1 nM.

Take `C[C@@H]1CN(c2cc(-c3n[nH]c4ccc(OC5(C)CC5)cc34)ccn2)CCO1` [Example 29]: the inhibition at 1 µM on CDK1/cyclin B stood at 26%; at AURKB (Aurora B), 11%; at MAPK8 (JNK1), 54%; on BRAF V599E, 18%; on MAPK1 (ERK2) it was 18%; at JAK3 it was 46%. For the same molecule, the inhibition at 1 µM at IRAK1 worked out at 8%; on CHEK2 (CHK2) it was 2%; on DYRK1A, 4%; on CLK2 it was 53%. Moreover, in assay [1], the half-maximal inhibitory concentration (IC50) turned out to be 0.6 nM.

For `c1cc(-c2n[nH]c3ccc(OC4CC4)cc23)cc(N2CCOC3(CC3)C2)n1` [Example 6], inhibition in assay [1] was half-maximal at 17 nM (IC50).

As for `O=S1(=O)CC2CC(C1)N(c1cc(-c3n[nH]c4ccc(OC5CC5)cc34)ccn1)C2` (stereo not shown) [Example 11], the midpoint of inhibition in [1], the IC50, lay at 111 nM.

In [1], `CN1CCN(c2cc(-c3n[nH]c4ccc(OC5(C)CC5)cc34)ccn2)CC1=O` [Example 33] came in with an IC50 of 1 nM.

`[O-][S+]1CCCN(c2cc(-c3n[nH]c4ccc(OC5CC5)cc34)ccn2)CC1` (stereo not shown) [Example 15] had an IC50 in [1] of 44 nM.

In the case of `CN1CCN(c2cc(-c3n[nH]c4ccc(OC5(C)CC5)cc34)ccn2)CC1` [Example 32], in assay [1], half-maximal inhibition (IC50) required 0.6 nM.

In assay [1], `c1cc(-c2n[nH]c3ccc(OC4CC4)cc23)cc(N2CCC(n3cncn3)CC2)n1` [Example 12] registered an IC50 of 10 nM.
